We go through four compounds from patent US20100155657A1, “AQUEOUS COMPOSITION CONTAINING FLUORINATED SULFONAMIDE AND SULFONAMIDATE COMPOUNDS” (3M Innovative Properties Company, priority 2008, published 2010).

A short description of series [1]: calculated neutralization equilibrium constant Kn for deprotonation of sulfonamide with ammonia. The conditions noted are these: for Kn: RfSO2NHX + NH3 -> RfSO2N(-)X + NH4+, pKa of ammonium 9.24 at 25 °C; for K(RfSO2NHX): acid dissociation constant of the sulfonamide, from pKa. The format is physicochemical. On the procedure:
The equilibrium between a sulfonamide and its conjugate sulfamidate anion is determined by the both the pKa of the sulfonamide and the pKb (i.e., the pKa of the conjugate acid of the base).
NH3+RfSO2NHX→NH4^++RfSO2N^(−)X
The neutralization equilibrium constant Kn can be expressed as
Kn can also be expressed as: […]

The conditions of series [2]: determined experimentally.

`O=S(=O)(NCCO)C(F)(F)C(F)(F)C(F)(F)C(F)(F)F` [X = CH2CH2OH, CF3CF2CF2CF2SO2NHCH2CH2OH]: in series [1], the Kn is recorded as 467 and the “K(RfSO2NHX)” value is listed as 2.69 × 10^−7.

For orientation: pKa means the pH at which an ionisable group is half protonated. A higher pKa goes with a group that holds its proton tightly. For the compound `CCNS(=O)(=O)C(F)(F)C(F)(F)C(F)(F)C(F)(F)F` [X = CH2CH3], the pKa in series [2] was found to be 8.15. Regarding `CNS(=O)(=O)C(F)(F)C(F)(F)C(F)(F)C(F)(F)F` [X = CH3, CF3CF2CF2CF2SO2NHCH3], in series [1], the Kn is on record as 52 and the “K(RfSO2NHX)” value is on record as 3.01 × 10^−8. The like results for `NS(=O)(=O)C(F)(F)C(F)(F)C(F)(F)C(F)(F)F` [X = H, CF3CF2CF2CF2SO2NH2] were, in that order, 1800 and 1.05 × 10^−6.
